Laboratory results published in patent US8754076B2, “Cyclic inhibitors of 11beta-hydroxysteroid dehydrogenase 1” (Vitae Pharmaceuticals, Inc./Boehringer-Ingelheim, priority 2008, dated 2014).

Tests used:
human CYP2C9 = human CYP2C9 (Homo sapiens, UniProt P11712); assay: Biological Test Example 9: CYP2C9 inhibition (Invitrogen kit, fluorogenic substrate OOMR); format: in vitro ADME
human 11β-HSD1 = molecular target: T1, human 11β-HSD1 (Homo sapiens, UniProt P28845); format: biochemical
T1 construct: expressed in transfected cells; host or cells: CHO cells (microsomal preparation)
T1 sequence (P28845 whole entry): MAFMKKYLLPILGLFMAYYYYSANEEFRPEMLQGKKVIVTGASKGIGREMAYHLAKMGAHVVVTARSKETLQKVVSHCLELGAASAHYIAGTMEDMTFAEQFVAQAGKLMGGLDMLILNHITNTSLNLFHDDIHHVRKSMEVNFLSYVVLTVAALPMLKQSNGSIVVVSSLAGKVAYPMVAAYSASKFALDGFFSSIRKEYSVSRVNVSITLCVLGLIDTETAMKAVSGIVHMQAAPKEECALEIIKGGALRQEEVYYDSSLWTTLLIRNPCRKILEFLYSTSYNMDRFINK

Chain of human CYP2C9 (P11712 whole entry): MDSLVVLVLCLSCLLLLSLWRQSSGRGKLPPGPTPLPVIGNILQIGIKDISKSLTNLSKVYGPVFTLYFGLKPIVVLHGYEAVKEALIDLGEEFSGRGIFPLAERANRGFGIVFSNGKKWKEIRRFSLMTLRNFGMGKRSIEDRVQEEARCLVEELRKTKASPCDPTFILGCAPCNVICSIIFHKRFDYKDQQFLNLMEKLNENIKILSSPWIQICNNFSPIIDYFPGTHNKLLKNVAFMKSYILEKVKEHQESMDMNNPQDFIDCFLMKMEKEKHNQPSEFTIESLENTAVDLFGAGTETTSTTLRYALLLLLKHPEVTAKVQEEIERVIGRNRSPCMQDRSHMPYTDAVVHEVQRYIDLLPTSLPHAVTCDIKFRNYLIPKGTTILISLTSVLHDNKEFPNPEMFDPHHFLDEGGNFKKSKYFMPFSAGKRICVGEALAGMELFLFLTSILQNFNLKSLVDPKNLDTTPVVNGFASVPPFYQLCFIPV

Work on `CCn1cc(-c2ccc([C@H](C)N3CC[C@](CC(C)(C)O)(c4ccccc4)OC3=O)cc2)ccc1=O` [Example 53, (S)-3-((S)-1-(4-(1-ethyl-6-oxo-1,6-dihydropyridin-3-yl)phenyl)ethyl)-6-(2-hydroxy-2-methylpropyl)-6-phenyl-1,3-oxazinan-2-one] yielded an IC50 (human CYP2C9) greater than 30 µM.
For `C[C@@H](c1ccc(-c2ccn(C)c(=O)c2)cc1)N1CC[C@](CC(C)(C)O)(c2ccccc2)OC1=O` [Example 48, (S)-6-(2-hydroxy-2-methylpropyl)-3-((S)-1-(4-(1-methyl-2-oxo-1,2-dihydropyridin-4-yl)phenyl)ethyl)-6-phenyl-1,3-oxazinan-2-one], the IC50 (human CYP2C9) was greater than 30 µM.
Compound `C[C@@H](c1ccc(-c2ccn(C3CC3)c(=O)c2)cc1)N1CCC(CC2CC2)(CC(C)(C)O)OC1=O` (single isomer, unassigned) [93 Isomer 1] has an IC50 (human CYP2C9) of 28.5 µM.
For `C[C@@H](c1ccc(-c2cccn(C)c2=O)cc1)N1CC[C@](CCCO)(c2ccc(F)cc2)OC1=O` [Example 42, (R)-6-(4-fluorophenyl)-6-(3-hydroxypropyl)-3-((S)-1-(4-(1-methyl-2-oxo-1,2-dihydropyridin-3-yl)phenyl)ethyl)-1,3-oxazinan-2-one], the Shift (human 11β-HSD1) was 7.97.
